# From ChEMBL document CHEMBL3044635, “Effect of propiconazole and difenoconazole on the control of anthracnose of chilli fruits caused by Colletotrichum capsici” (Crop Prot, 2006)
# Legend:
# [1] = system: Puccinia allii; assay: Fungicidal activity against Puccinia allii assessed as inhibition of spore germination; type: functional
# [2] = system: Colletotrichum truncatum; assay: Fungicidal activity against Colletotrichum capsici assessed as sporulation at 25 ug/ml incubated 16 hr photoperiod for 20 days by haemocytometer (reference value: 0.081 x 10^6 ml'-1); type: functional
# [3] = system: Colletotrichum truncatum; assay: Fungicidal activity against Colletotrichum capsici assessed as spore germination at 5 ug/ml after 48 to 96 hr relative to control; type: functional
# [4] = system: Colletotrichum truncatum; assay: Fungicidal activity against Colletotrichum capsici assessed as inhibition of spore germination at 0.1 ug/ml after 48 to 96 hr relative to control; type: functional
# [5] = system: Colletotrichum truncatum; assay: Fungicidal activity against Colletotrichum capsici assessed as mycelial biomass at 5 ug/ml incubated 16 hr photoperiod for 20 days (reference value: 675 mg); type: functional
# [6] = system: Colletotrichum truncatum; assay: Fungicidal activity against Colletotrichum capsici assessed as mycelial biomass at 1 ug/ml incubated 16 hr photoperiod for 20 days (reference value: 675 mg); type: functional
# [7] = system: Colletotrichum truncatum; assay: Fungicidal activity against Colletotrichum capsici assessed as linear growth at 10 ug/ml incubated 16 hr photoperiod for 20 days (reference value: 90 mm); type: functional
# [8] = system: Colletotrichum truncatum; assay: Fungicidal activity against Colletotrichum capsici infected chilli plant assessed as fruit length at 0.1% applied as spray on day 10 post inoculation and twice every 20 days measured on day 155 post sowing in green house conditions (reference value: 6.8 to 7 cm); type: functional
# [9] = system: Colletotrichum truncatum; assay: Fungicidal activity against Colletotrichum capsici infected chilli plant assessed as fruit mass measured per pot at 0.05% applied as spray on day 10 post inoculation and twice every 20 days measured on day 155 post sowing in green house conditions (reference value: 85.3 to 94.5 g); type: functional
# [10] = system: Colletotrichum truncatum; assay: Fungicidal activity against Colletotrichum capsici infected chilli plant assessed as fruit mass measured per pot at 0.1% applied as spray on day 10 post inoculation and twice every 20 days measured on day 155 post sowing in green house conditions (reference value: 85.3 to 94.5 g); type: functional
# [11] = system: Colletotrichum truncatum; assay: Fungicidal activity against Colletotrichum capsici infected chilli plant assessed as percent disease index at 0.05% applied as spray on day 10 post inoculation and twice every 20 days measured on day 155 post sowing in green house conditions (reference value: 62.5 to 68.6%); type: functional
# [12] = system: Colletotrichum truncatum; assay: Fungicidal activity against Colletotrichum capsici infected chilli plant assessed as percent disease index at 0.1% applied as spray on day 10 post inoculation and twice every 20 days measured on day 155 post sowing in green house conditions (reference value: 62.5 to 68.6%); type: functional
# [13] = system: Colletotrichum truncatum; assay: Fungicidal activity against Colletotrichum capsici infected chilli plant assessed as fruit length measured per plot at 0.1% applied as spray on day 10 post inoculation and twice every 20 days measured on day 155 post sowing in field conditions (reference value: 8 to 8.7 cm); type: functional
# [14] = system: Colletotrichum truncatum; assay: Fungicidal activity against Colletotrichum capsici infected chilli plant assessed as fruit yield measured per plot at 0.025% applied as spray on day 10 post inoculation and twice every 20 days measured on day 155 post sowing in field conditions (reference value: 8.25 to 9.3 kg); type: functional
# [15] = system: Colletotrichum truncatum; assay: Fungicidal activity against Colletotrichum capsici infected chilli plant assessed as fruit yield measured per plot at 0.05% applied as spray on day 10 post inoculation and twice every 20 days measured on day 155 post sowing in field conditions (reference value: 8.25 to 9.3 kg); type: functional
# [16] = system: Colletotrichum truncatum; assay: Fungicidal activity against Colletotrichum capsici infected chilli plant assessed as fruit yield measured per plot at 0.1% applied as spray on day 10 post inoculation and twice every 20 days measured on day 155 post sowing in field conditions (reference value: 8.25 to 9.3 kg); type: functional
# [17] = system: Colletotrichum truncatum; assay: Fungicidal activity against Colletotrichum capsici infected chilli plant assessed as percent disease index at 0.1% applied as spray on day 10 post inoculation and twice every 20 days measured on day 155 post sowing in field conditions (reference value: 51 to 56.5%); type: functional
# [18] = system: Colletotrichum truncatum; assay: Fungicidal activity against Colletotrichum capsici assessed as spore germination at 5 ug/ml after 48 to 96 hr (reference value: 70.2 CFU); type: functional
# [19] = system: Capsicum annuum; assay: Phytotoxicity in Capsicum annuum (pepper) at 0.05% applied as spray; type: organism-based; details: in vivo, other
SMILES,MIC [1],Activity [2],Activity [3],inhibition at 0.1 µg/mL [4],Activity [5],Activity [6],Activity [7],Activity [8],Crop_yield [9],Crop_yield [10],PDI [11],PDI [12],Activity [13],Crop_yield [14],Crop_yield [15],Crop_yield [16],PDI [17],CFU [18],Activity [19]
CCCC1COC(Cn2cncn2)(c2ccc(Cl)cc2Cl)O1 (stereo not drawn) [PROPICONAZOLE],50 µg/mL,0 ×10⁶ /ml,0%,62%,53 mg,129 mg,9 mm,8 cm,130 g,165.6 g,25.7%,17.5%,10.2 cm,9.86 kg,13.1 kg,17.5 kg,13.5%,,
CC1COC(Cn2cncn2)(c2ccc(Oc3ccc(Cl)cc3)cc2Cl)O1 (stereo not drawn) [DIFENOCONAZOLE],,0 ×10⁶ /ml,,40%,118 mg,243 mg,18.5 mm,,140.5 g,,22.2%,,,9.1 kg,12.34 kg,,,4.1,Non-toxic
